The values that follow come from ChEMBL document CHEMBL4414645, “Development of Robust 17(R),18(S)-Epoxyeicosatetraenoic Acid (17,18-EEQ) Analogues as Potential Clinical Antiarrhythmic Agents” (J Med Chem, 2019).

In brackets after ≈: the same amount, converted by molar mass.

In one series the target is T1, Cytochrome P450 2C8 (Homo sapiens, UniProt P10632).
T1 sequence (P10632 whole entry): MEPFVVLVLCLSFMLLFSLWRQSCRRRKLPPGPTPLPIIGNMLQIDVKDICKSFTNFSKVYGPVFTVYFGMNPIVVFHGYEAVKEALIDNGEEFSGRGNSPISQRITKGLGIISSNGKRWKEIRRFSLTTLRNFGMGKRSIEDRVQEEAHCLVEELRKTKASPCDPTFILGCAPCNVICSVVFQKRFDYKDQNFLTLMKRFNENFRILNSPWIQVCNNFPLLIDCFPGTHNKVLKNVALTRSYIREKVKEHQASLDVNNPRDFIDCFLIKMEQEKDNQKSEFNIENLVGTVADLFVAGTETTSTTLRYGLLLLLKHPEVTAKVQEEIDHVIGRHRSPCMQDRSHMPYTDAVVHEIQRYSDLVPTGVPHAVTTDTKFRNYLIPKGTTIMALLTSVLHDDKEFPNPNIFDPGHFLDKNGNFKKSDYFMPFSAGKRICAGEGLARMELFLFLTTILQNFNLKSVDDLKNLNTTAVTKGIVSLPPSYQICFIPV
Nature of the series: Inhibition of human CYP2C8 by fluorescence method. Format: ADME.

Series [1] can be described thus: Apparent permeability across basolateral to apical side in human Caco2 cells at 10 uM after 15 to 90 mins by LC-ESI-MS/MS analysis. Format: ADME, cell-based. As to conditions: Caco-2. (In general: Caco-2 monolayers are a common model of the intestinal barrier.)
Series [2] in a line: Aqueous solubility of the compound in pH 7.4 potassium phosphate buffer at 2 mg after 1 to 24 hrs by RP-HPLC method. Conditions: potassium phosphate buffer, read-out: solubility. Format: physicochemical.
A short description of series [3]: Negative chronotropic activity in Wistar rat neonatal cardiomyocytes assessed as decrease in basal beating rate after 7 mins by inverted microscopic method. Format: functional, cell-based.
Series [4] concerns the target T2, Bifunctional epoxide hydrolase 2 (Homo sapiens) (UniProt P34913).
T2 sequence (whole entry): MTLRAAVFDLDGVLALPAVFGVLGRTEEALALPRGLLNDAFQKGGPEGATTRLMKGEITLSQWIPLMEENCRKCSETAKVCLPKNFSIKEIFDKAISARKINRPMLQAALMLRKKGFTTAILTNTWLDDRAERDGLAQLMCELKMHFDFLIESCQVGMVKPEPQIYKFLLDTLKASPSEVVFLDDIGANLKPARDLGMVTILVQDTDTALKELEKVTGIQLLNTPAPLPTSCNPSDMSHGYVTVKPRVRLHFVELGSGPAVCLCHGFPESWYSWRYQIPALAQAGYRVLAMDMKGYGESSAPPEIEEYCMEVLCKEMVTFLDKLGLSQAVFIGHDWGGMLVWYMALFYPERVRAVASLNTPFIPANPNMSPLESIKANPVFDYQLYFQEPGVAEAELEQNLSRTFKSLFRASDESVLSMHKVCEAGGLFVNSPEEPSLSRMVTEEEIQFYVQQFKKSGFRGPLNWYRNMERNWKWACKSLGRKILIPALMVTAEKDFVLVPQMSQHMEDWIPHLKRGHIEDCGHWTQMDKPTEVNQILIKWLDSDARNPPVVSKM
As to conditions: Sf21, at 1 µM.
Description: Inhibition of N-terminal His-tagged recombinant human soluble epoxide hydrolase (2 to 555 residues) expressed in Sf21 insect cells at 1 uM using as 14,15-EET as substrate after 10 mins by reversed-phase HPLC assay relative to control

Series [5] can be described thus: n-Octanol-Tris/phosphoric acid buffer buffer distribution coefficient, log D of the compound at pH 7.4 shaken for 30 mins and measured after 24 hrs by UV-HPLC method. Format: physicochemical.
In another series the target is T3, Cytochrome P450 1A2 (Homo sapiens, UniProt P05177).
T3 sequence (P05177 whole entry): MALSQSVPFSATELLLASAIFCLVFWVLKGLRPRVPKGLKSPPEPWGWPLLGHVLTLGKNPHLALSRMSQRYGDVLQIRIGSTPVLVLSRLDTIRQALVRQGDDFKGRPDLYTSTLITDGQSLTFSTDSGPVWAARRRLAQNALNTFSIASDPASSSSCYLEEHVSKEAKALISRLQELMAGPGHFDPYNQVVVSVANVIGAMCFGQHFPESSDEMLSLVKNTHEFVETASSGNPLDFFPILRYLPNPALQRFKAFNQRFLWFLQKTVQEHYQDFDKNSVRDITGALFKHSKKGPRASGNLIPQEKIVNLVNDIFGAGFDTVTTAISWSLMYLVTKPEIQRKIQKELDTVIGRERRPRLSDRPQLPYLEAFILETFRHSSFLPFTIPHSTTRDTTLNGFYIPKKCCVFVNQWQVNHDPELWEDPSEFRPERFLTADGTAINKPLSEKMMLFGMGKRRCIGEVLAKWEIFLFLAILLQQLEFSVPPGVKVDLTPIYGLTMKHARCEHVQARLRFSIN
Put plainly: Inhibition of human CYP1A2 by fluorescence method. Format: ADME.

The nature of series [6]: Stability in human plasma at 10 uM measured over 240 mins by LC-ESI-MS/MS analysis. Format: ADME, cell-free. As to conditions: 4 h.
The target in a further series is Cytochrome P450 3A4 (Homo sapiens, UniProt P08684). Nature of the series: Inhibition of recombinant human CYP3A4 expressed in supersomes using 7-benzyloxyquinoline as substrate by fluorescence method. Format: ADME.
The target in series [7] is T2, Bifunctional epoxide hydrolase 2 (Homo sapiens). Nature of the series: Inhibition of N-terminal His-tagged recombinant human soluble epoxide hydrolase (2 to 555 residues) expressed in Sf21 insect cells at 10 uM using as 14,15-EET as substrate after 10 mins by reversed-phase HPLC assay relative to control.
The next series concerns Cytochrome P450. Nature of the series: Drug metabolism in human liver microsomes assessed as CYP450-mediated formation of [+O] metabolites at 1 uM after 60 mins in absence of NADPH by LC-MS analysis. As to conditions: 1 h. Format: ADME. A general note: Microsomes from liver hold many membrane-bound enzymes, among them those of drug oxidation.
A short description of series [8]: Oral bioavailability in Sprague-Dawley (RjHan:SD) rat at 3 mg/kg administered via gavage by LC-MS analysis. Format: ADME, organism-based. As to conditions: in vivo.
Series [9] in a line: Elimination half life in Sprague-Dawley (RjHan:SD) rat at 3 mg/kg, po administered via gavage by LC-MS analysis. Conditions: in vivo, read-out: beta t1/2 (converted). Format: ADME, organism-based.
The nature of series [10]: Negative chronotropic activity in Wistar rat neonatal cardiomyocytes assessed as change in basal beating rate after 7 mins by inverted microscopic method. Format: functional.

Chain of Cytochrome P450 3A4 (P08684 whole entry, the tested form may be a part): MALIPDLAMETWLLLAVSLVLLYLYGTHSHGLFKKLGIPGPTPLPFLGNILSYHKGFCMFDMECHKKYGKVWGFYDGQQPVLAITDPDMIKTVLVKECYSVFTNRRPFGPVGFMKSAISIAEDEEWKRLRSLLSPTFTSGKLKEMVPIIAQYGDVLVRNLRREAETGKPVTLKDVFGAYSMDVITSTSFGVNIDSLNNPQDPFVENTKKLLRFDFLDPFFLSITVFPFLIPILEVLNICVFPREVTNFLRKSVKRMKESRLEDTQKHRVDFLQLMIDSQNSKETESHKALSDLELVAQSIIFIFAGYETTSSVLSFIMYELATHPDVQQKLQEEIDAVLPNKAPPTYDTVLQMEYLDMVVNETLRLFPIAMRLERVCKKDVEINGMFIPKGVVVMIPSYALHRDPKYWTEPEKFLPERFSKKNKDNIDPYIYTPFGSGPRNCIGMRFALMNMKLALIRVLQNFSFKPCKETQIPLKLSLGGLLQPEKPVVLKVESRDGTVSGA

In the case of `CNC(=O)C(=O)NCCCC/C=C\CCCCCCCCCC(=O)O`, the IC50 on Cytochrome P450 2C8, against Cytochrome P450 1A2 and at Cytochrome P450 3A4 was greater than 50 µM each time. Also, the Papp B→A at 10 µM in series [1] was determined as 2.3 ×10⁻⁶ cm/s. The solubility in series [2] came to 80 µg/mL (≈ 226 µM). Besides, in series [3], the EC50 is 0.00569 µM. For the same molecule, the inhibition in [4] is -4.1%; in series [7] it was -8.3%. Moreover, the log distribution coefficient (logD) in series [5] stood at 2.01. Further, the Stability result in [6] is “Stable”. In addition, the Drug metabolism entry in the series on Cytochrome P450 is listed as “Metabolite_Notdetected”.
In the case of `CNC(=O)C(=O)NCCCC/C=C\CCCCCCCOCC(=O)O`, the IC50 against Cytochrome P450 2C8, at Cytochrome P450 1A2 and at Cytochrome P450 3A4 was greater than 50 µM throughout. Moreover, in series [1], the Papp B→A at 10 µM stood at 15.8 ×10⁻⁶ cm/s. For the same molecule, in series [2], the solubility was determined as 1960 µg/mL (≈ 5500 µM). Also, in [3], the EC50 amounted to 0.00141 µM. Also, the inhibition in [4] and in series [7] was 0.8% each time. Moreover, in series [5], the log distribution coefficient (logD) was -0.03. The bioavailability in series [8] came to 100%. Further, the Stability result in [6] is on record as “Stable”. Besides, the half-life in series [9] is 9.6 h. Besides, the Activity in [10] is given as -33.6 bpm. Besides, the Drug metabolism result with Cytochrome P450 is “Metabolite_Notdetected”.
As to `CNC(=O)C(=O)NCCCC/C=C\CCCCCCCCCc1nnn[nH]1`, the IC50 against Cytochrome P450 2C8 is greater than 50 µM; on Cytochrome P450 1A2 it was greater than 50 µM; on Cytochrome P450 3A4 it was 4.7 µM. In addition, the Papp B→A at 10 µM in [1] is 8 ×10⁻⁶ cm/s. For the same molecule, the solubility in series [2] turned out to be 40 µg/mL (≈ 106 µM). Also, the EC50 in series [3] was found to be 0.00115 µM. Besides, the results for the inhibition in series [4] and in series [7] were -1.3% and 1.9%, respectively. In series [5], this molecule displayed a logD of 2.35. This molecule came in with a bioavailability in [8] of 35%. Also, the Stability entry in series [6] is given as “Stable”. Moreover, the half-life in series [9] is 3.6 h. For the same molecule, the Activity in series [10] is given as -30.9 bpm. The Drug metabolism result in the series on Cytochrome P450 is “Metabolite_Notdetected”.

By IC50 is commonly meant the midpoint of a concentration-inhibition curve. Usually Papp B→A stands for the apparent permeability from the basolateral to the apical side of a cell layer. The solubility is the concentration that dissolves in the medium under given conditions. A word on the EC50: it is the concentration needed to bring the measured effect to its halfway point. By inhibition is commonly meant the change of the read-out against control, counted positive when it falls. What is called logD is the decadic logarithm of the distribution of all forms, ionised or not, between an organic phase and buffer at a given pH. In general, bioavailability refers to the share of a dose that reaches the circulation, judged against a reference dose that is usually intravenous.
